{"source": "patent US20250122253A1", "about": "“REGULATING MICROTUBULE DYNAMICS AS A THERAPEUTIC TARGET FOR NERVE REPAIR” (City University of Hong Kong, priority 2023, published 2025)", "key": {"[1]": {"settings": "cited from earlier work"}, "[2]": {"tested_on": "SCG10-positive regenerating axons of sciatic nerve", "experiment": "Quantification of in vivo axon regeneration by SCG10 immunostaining (regeneration index)", "set-up": "species or system mice", "settings": "3 days post-injury", "method": "Mice were perfused transcardially with 4% PFA, and L4/5 DRGs and sciatic nerves were harvested, post-fixed, cryoprotected and frozen in OCT compound (Tissue-Tek). For regenerating axon quantification, 12-μm thick longitudinal serial sections of sciatic nerve were blocked with 0.5% BSA/0.1% Triton X-100 (Sigma-Aldrich), and incubated with anti-SCG10 (a marker for regenerating sensory axons; 1:5,000; Novus Biologicals) primary antibodies. The sections were then incubated with secondary antibody conjugated with Alexa Fluor 555 (1:300; Molecular Probes). A series of z-stack images were taken at 20× magnifications using Nikon AXR confocal microscope equipped with a motorized stage and a resonant scanner, stitched, and maximally projected using NIS-Elements software.\nTo quantify regenerating axons, the SCG10 fluorescence intensity was measured at different distal distances away from the crush site using a line scan macro in ImageJ (NIH). A fluorescence intensity profile of SCG10 immunoreactivity was plotted by averaging the SCG10 intensity from 100 neighbouring pixels and normalized to that measured in the crushed site with maximal SCG10 immunoreactivity. For each mouse, at least 3 non-overlapping sections (at least 36 μm apart) were used and averaged from 12-15 sections per genotype or treatment group (n=4-5 per genotype or treatment group)."}, "[3]": {"tested_on": "sensory function of injured hindlimb", "experiment": "Pinprick assay (sensory function recovery) after sciatic nerve crush", "format": "in vivo, mice", "method": "Adult male Fmn2^−/− mice (8-12 weeks old) and their age-matched WT littermates, or adult male C57BL/6 mice (for whole-body X-ray, AAV2/9-Fmn2-shRNA and metaxalone experiments) were trained and habituated one week before the sciatic nerve crush injury. After three independent training sessions (30 minutes per session with two days break), baseline values were taken, and sciatic nerve crush injury were performed one day after the baseline recordings. Function recovery was monitored for 30 days. On day 3 after the sciatic nerve crush, we first perform pinprick assay and followed by motor function assays every other day in a sequential manner (toe spreading, grip strength, and sciatic functional index) with 30 mins apart from each test. Animal behavioural tests were done blinded to the surgery and genotypes.\nMice were placed singly in small wire-mesh cages for 30-minutes habituation, an insect pin (Fine Science Tools) were applied to the lateral plantar surface of the ipsilateral hindlimb from toe to heel. The lateral planar surface was divided into 5 different areas, from the most distal toe (score=5) to the heel (score=1). The mouse was scored for that area if a brisk withdrawal response of hind paw was observed. The mouse was scored 0 if no withdrawal responses were observed after insect pin was applied to all 5 areas. Saphenous innervated area of the same hindlimb was tested as a positive control if there was no positive response from these five areas. Two rounds of pinprick assay were performed (with a 30-minute time interval) in each mouse to confirm the score.\nTo examine the therapeutic potential of metaxalone, adult mice received daily intraperitoneal injection of metaxalone at 10 mg/kg immediately after injury for 21 consecutive days (i.e., metaxalone treatment) or delaying daily intraperitoneal injection of metaxalone at 10 mg/kg to 24 hours post-injury for 20 consecutive days (i.e., delayed metaxalone treatment), and all metaxalone treatments ended on day 21 post-injury. The mice were then subjected to sensory and motor function recovery tests and weekly EMG recordings for 28 days post-injury."}}}
{"molecule": "Cc1cc(C)cc(OCC2CNC(=O)O2)c1", "note": "(centres unmarked) [metaxalone]", "values": [{"measurement": "half-life", "setting": "[1]", "value": 9, "unit": "h"}, {"measurement": "regeneration index at the region over 4.5 mm, delayed treatment", "setting": "[2]; treatment delayed by 24 hours", "value": 0.40}, {"measurement": "regeneration index at the region over 4.5 mm", "setting": "[2]; treatment immediately after injury", "value": 0.34}, {"measurement": "number of SCG10-positive regenerating axons at 4.5 mm distal to the crush injury site", "setting": "[2]; vs vehicle controls", "value": "significant increase"}, {"measurement": "initial response to pinprick stimuli (reaching score 1), delayed treatment", "setting": "[3]; 10 mg/kg intraperitoneally daily, delayed to 24 hours post-injury, 20 days", "value": 10, "unit": "day post-injury"}, {"measurement": "full sensory pinprick response regained earlier than vehicle controls, delayed treatment", "setting": "[3]; 10 mg/kg intraperitoneally delayed to 24 hours post-injury", "value": 2, "unit": "days"}, {"measurement": "full sensory pinprick response regained earlier than vehicle controls", "setting": "[3]; 10 mg/kg intraperitoneally immediately after PNI", "value": 4, "unit": "days"}, {"measurement": "initial response to pinprick stimuli (reaching score 1)", "setting": "[3]; 10 mg/kg intraperitoneally once a day immediately after PNI for 21 days", "value": 9, "unit": "day post-injury"}]}
